Laboratory results published in ChEMBL document CHEMBL1153850, “Novel derivatives of 6-mercaptopurine: synthesis, characterization and antiproliferative activities of S-allylthio-mercaptopurines” (Eur J Med Chem, 2009).
Active and inactive are the calls of the source. The calls are words filed in the database; no cut-off is given here.

Legend:
HT-29 [1] = assay: Antiproliferative activity against multidrug-resistant human HT-29 cells assessed as [methyl-3H]thymidine incorporation after 16 hrs by XTT assay; assay type: functional, cell-based; conditions: HT-29, 16 h
[2] = Induction of apoptosis in human B-CLL cells after 48 hrs by FACS analysis; assay type: functional, cell-based
HL-60 [3] = assay: Antiproliferative activity against human HL60 cells assessed as [methyl-3H]thymidine incorporation after 16 hrs by XTT assay; assay type: functional, cell-based; conditions: HL-60, 16 h
U-937 = assay: Antiproliferative activity against human U937 cells assessed as [methyl-3H]thymidine incorporation after 16 hrs by XTT assay; assay type: functional, cell-based; conditions: U-937, 16 h
Daudi [4] = assay: Antiproliferative activity against human Daudi cells assessed as [methyl-3H]thymidine incorporation after 16 hrs by XTT assay; assay type: functional, cell-based
NCI-N87 [5] = assay: Antiproliferative activity against human NCI-N87 cells assessed as [methyl-3H]thymidine incorporation after 16 hrs by XTT assay; assay type: functional, cell-based; conditions: for IC50: NCI-N87, 16 h
NCI-N87 [6] = assay: Antiproliferative activity against human NCI-N87 cells at 150 uM after 16 hrs by XTT assay; assay type: functional
HL-60 [7] = assay: Antiproliferative activity against human HL60 cells assessed as cell viability after 16 hrs by [methyl-3H]thymidine incorporation based XTT assay relative to control; assay type: functional
HeLa [8] = assay: Antiproliferative activity against human HeLa cells assessed as cell viability after 16 hrs by [methyl-3H]thymidine incorporation based XTT assay relative to control; assay type: functional
MOLT-4 = assay: Antiproliferative activity against human MOLT4 cells assessed as [methyl-3H]thymidine incorporation after 16 hrs by XTT assay; assay type: functional, cell-based; conditions: MOLT-4, 16 h
Jurkat = assay: Antiproliferative activity against human Jurkat cells assessed as [methyl-3H]thymidine incorporation after 16 hrs by XTT assay; assay type: functional, cell-based
Daudi [9] = assay: Antiproliferative activity against human Daudi cells assessed as residual proliferation at 50 uM after 16 hrs by XTT assay; assay type: functional
NCI-N87 [10] = assay: Antiproliferative activity against human NCI-N87 cells assessed as residual proliferation at 100 uM after 16 hrs by XTT assay; assay type: functional
NCI-N87 [11] = assay: Antiproliferative activity against human NCI-N87 cells assessed as residual proliferation at 50 uM after 16 hrs by XTT assay; assay type: functional
HeLa [12] = assay: Antiproliferative activity against human HeLa cells assessed as [methyl-3H]thymidine incorporation after 16 hrs by XTT assay; assay type: functional, cell-based
Daudi [13] = assay: Antiproliferative activity against human Daudi cells assessed as residual proliferation at 100 uM after 16 hrs by XTT assay; assay type: functional
Daudi [14] = assay: Antiproliferative activity against human Daudi cells at <=20 uM assessed as [methyl-3H]thymidine incorporation after 16 hrs by XTT assay relative to control; assay type: functional
HeLa [15] = assay: Antiproliferative activity against human HeLa cells at 110 uM assessed as [methyl-3H]thymidine incorporation after 16 hrs by XTT assay relative to control; assay type: functional, cell-based
[16] = Antiproliferative activity against human B-CLL cells assessed as cell viability after 16 hrs by trypan blue exclusion assay; assay type: functional, cell-based
PBMC = assay: Inhibition of T cell mitogen-induced blastogenesis in human PBMC after 4 days; assay type: functional, cell-based; conditions: 96 h
NCI-N87 [17] = assay: Antiproliferative activity against human NCI-N87 at 100 uM assessed as [methyl-3H]thymidine incorporation after 16 hrs by XTT assay relative to control; assay type: functional, cell-based
[18] = Induction of apoptosis in human B-CLL cells assessed as increase in apoptotic cells at 150 uM after 16 hrs by FACS analysis; assay type: functional
HT-29 [19] = assay: Cytotoxicity against multidrug-resistant human HT-29 cells assessed as inhibition of epithelial-like growth at 150 uM after 16 hrs using propidium iodide staining by phase-contrast microscopy; assay type: functional, cell-based
HeLa [20] = assay: Cytotoxicity against human HeLa cells assessed as reduced cell viability at 200 uM by trypan blue exclusion assay relative to control; assay type: functional
[21] = Induction of apoptosis in human B-CLL cells assessed as increase in apoptotic cells at 100 uM after 16 hrs by FACS analysis; assay type: functional
[22] = Induction of apoptosis in human B-CLL cells assessed as increase in apoptotic cells at 50 uM after 16 hrs by FACS analysis; assay type: functional
HT-29 [23] = assay: Induction of multidrug-resistant human HT-29 cell death at 150 uM after 16 hrs using propidium iodide staining by fluorescence microscopy; assay type: functional, cell-based
HeLa [24] = assay: Cytotoxicity against human HeLa cells assessed as reduced cell viability at 150 uM by trypan blue exclusion assay relative to control; assay type: functional
Daudi [25] = assay: Antiproliferative activity against human Daudi cells at 50 uM after 16 hrs by XTT assay; assay type: functional
[26] = Cytotoxicity against human B-CLL cells assessed as residual cell viability at 150 uM after 16 hrs by trypan blue exclusion assay relative to control; assay type: functional
HT-29 [27] = assay: Cytotoxicity against multidrug-resistant human HT-29 cells assessed as reduced cell viability at 150 uM by trypan blue exclusion assay relative to control; assay type: functional
Daudi [28] = assay: Cytotoxicity against human Daudi cells assessed as residual cell viability at 50 uM after 16 hrs by trypan blue exclusion assay relative to control; assay type: functional

| Structure (SMILES) | IC50 (HT-29 [1]) | IC50 (HL-60 [3]) | IC50 (U-937) | IC50 (Daudi [4]) | IC50 (NCI-N87 [5]) | Activity (NCI-N87 [6]) | IC50 (MOLT-4) | IC50 (Jurkat) | Activity (NCI-N87 [11]) | IC50 (HeLa [12]) | Activity (Daudi [14]) | Activity (HeLa [12]) | Activity (HeLa [15]) | IC50 (PBMC) | Activity (NCI-N87 [17]) | Activity (HT-29 [19]) | Activity (Daudi [4]) | Activity [21] | Activity (NCI-N87 [5]) | Activity [22] | also measured |
| --- | --- | --- | --- | --- | --- | --- | --- | --- | --- | --- | --- | --- | --- | --- | --- | --- | --- | --- | --- | --- | --- |
| C=CCS[S+]([O-])CC=C (stereo not drawn) [ALLICIN] | 83.8 µM | 5.5 µM | 19.7 µM | 35.3 µM | 16.8 µM | – | – | – | – | – | – | – | – | – | – | – | – | – | – | – | IC50 [2]: 20 µM |
| OC[C@@H]1O[C@H](n2cnc3c(S)ncnc32)[C@@H](O)[C@H]1O | – | – | > 200 µM | – | – | 75% | 24.8 µM | 99 µM | – | – | – | – | – | – | – | – | – | – | – | – | Activity (HL-60 [7]): inactive; Activity (HeLa [8]): inactive |
| C=CCSSc1ncnc2c1ncn2[C@H]1O[C@@H](CO)[C@H](O)[C@@H]1O | > 200 µM | 86.1 µM | 113 µM | 70.8 µM | 120 µM | Active | 16.9 µM | 69.1 µM | 70% | > 200 µM | – | – | – | – | – | – | – | – | – | – | Activity (Daudi [9]): 60%; Activity (NCI-N87 [10]): 55%; Activity (Daudi [13]): 25% |
| Sc1ncnc2nc[nH]c12 [MERCAPTOPURINE ANHYDROUS] | > 200 µM | – | > 200 µM | > 200 µM | – | 80% | 50.5 µM | > 200 µM | – | > 200 µM | inactive | Dose-dependent effect | inactive | 0.149 µM | inactive | inactive | Dose-dependent effect | 9.7% | Dose-dependent effect | 9.78% | IC50 [16]: > 200 µM; Activity [18]: 8.68%; Activity (HeLa [20]): 75% |
| Cn1cnc([N+](=O)[O-])c1Sc1ncnc2[nH]cnc12 [AZATHIOPRINE] | – | – | – | – | – | – | – | – | – | – | – | – | – | 0.23 µM | – | – | – | – | – | – | – |
| C=CCSSc1ncnc2nc[nH]c12 | – | 42 µM | 46.7 µM | 38.3 µM | 70.5 µM | – | 8.9 µM | 54.7 µM | 50% | – | 50% | Dose-dependent effect | Active | – | Active | Active | Dose-dependent effect | 95.26% | Dose-dependent effect | 37.88% | Activity (HT-29 [23]): Active; Activity (HeLa [24]): 65%; Activity (Daudi [25]): 15%; Activity [26]: 75%; Activity (HT-29 [27]): 40%; Activity (Daudi [28]): 20% |
